Structures are written as SMILES.

As a reminder, the EC50 is the midpoint of the concentration-response curve.

Sequence of recombinant human S1P1 receptor (P21453 whole entry): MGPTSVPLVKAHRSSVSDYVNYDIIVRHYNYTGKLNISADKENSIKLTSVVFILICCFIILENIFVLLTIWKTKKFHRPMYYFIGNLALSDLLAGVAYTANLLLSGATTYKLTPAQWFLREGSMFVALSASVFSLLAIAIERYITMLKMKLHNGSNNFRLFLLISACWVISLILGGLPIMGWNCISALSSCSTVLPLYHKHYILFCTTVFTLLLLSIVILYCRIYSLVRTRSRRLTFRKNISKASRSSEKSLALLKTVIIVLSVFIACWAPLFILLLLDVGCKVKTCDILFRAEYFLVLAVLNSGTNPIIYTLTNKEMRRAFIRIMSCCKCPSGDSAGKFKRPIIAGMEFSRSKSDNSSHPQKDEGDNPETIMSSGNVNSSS

One assay has as its target recombinant human S1P1 receptor (Homo sapiens, UniProt P21453). Nature of the assay: GTPγS assay to determine EC50 values.
Settings: not given
Type of assay: biochemical. Here is the method: GTPγS Assay to Determine EC50 Values
The pH is 7.4. Test compounds are dissolved and diluted in 100% DMSO and pre-incubated at room temperature for 30 min in 150 μl of the above assay buffer, in the absence of ^35S-GTPγS. After addition of 50 μl of ^35S-GTPγS, the assay is incubated for 1 h at rt. […] Membrane-bound ^35S-GTPγS is measured with a TopCount from Packard Biosciences.
Specific binding is determined by subtracting non-specific binding from maximal binding. Maximal binding is the amount of cpm bound to the Multiscreen plate in the presence of 10 μM of S1P. Non-specific binding is the amount of binding in the absence of an agonist in the assay.
As for `CCc1cc(-c2nc(-c3cc(C)c(CCC(=O)NCCO)c(CC)c3)no2)cnc1N(C)C(C)C` [Example 46, 3-(2-Ethyl-4-{5-[5-ethyl-6-(isopropyl-methyl-amino)-pyridin-3-yl]-[1,2,4]oxadiazol-3-yl}-6-methyl-phenyl)-N-(2-hydroxy-ethyl)-propionamide], the EC50 stood at 5 nM.

Staying with this assay, now noted: 35S-GTPγS binding, membrane preparations of CHO cells expressing recombinant human S1P1 receptor; read-out: EC50.
Turning to `CCN(CC)c1ncc(-c2nc(-c3cc(C)c(OC[C@@H](O)CO)c(Cl)c3)no2)cc1C` [Example 63, (S)-3-{2-Chloro-4-[5-(6-diethylamino-5-methyl-pyridin-3-yl)-[1,2,4]oxadiazol-3-yl]-6-methyl-phenoxy}-propane-1,2-diol], the EC50 turned out to be 5.2 nM.
The same measure, in the same setting: with `CCc1cc(-c2noc(-c3cnc(N(C)CC)c(C)c3)n2)cc(C)c1OC[C@H](O)CNC(=O)CO` [Example 6, N-[(R)-3-(2-Ethyl-4-{5-[6-(ethyl-methyl-amino)-5-methyl-pyridin-3-yl]-[1,2,4]oxadiazol-3-yl}-6-methyl-phenoxy)-2-hydroxy-propyl]-2-hydroxy-acetamide] the figure was 3 nM; with `CCc1cc(-c2nc(-c3cc(C)c(CCC(=O)NCC(=O)O)c(CC)c3)no2)cnc1N(CC)CC` [Example 44, (3-{4-[5-(6-Diethylamino-5-ethyl-pyridin-3-yl)-[1,2,4]oxadiazol-3-yl]-2-ethyl-6-methyl-phenyl}-propionylamino)-acetic acid], 4 nM.
Turning to `CCc1cc(-c2nc(-c3cc(C)c(OC[C@@H](O)CO)c(CC)c3)no2)cnc1N(C)C(C)C` [Example 31, (S)-3-(2-Ethyl-4-{5-[5-ethyl-6-(isopropyl-methyl-amino)-pyridin-3-yl]-[1,2,4]oxadiazol-3-yl}-6-methyl-phenoxy)-propane-1,2-diol], the half-maximal effective concentration (EC50) is 17 nM.
On the same count and under the same terms, with `CCc1cc(-c2noc(-c3cnc(N(C)C(C)C)c(C)c3)n2)cc(C)c1OC[C@@H](O)CNC(=O)CO` [Example 15, N-[(S)-3-(2-Ethyl-4-{5-[6-(isopropyl-methyl-amino)-5-methyl-pyridin-3-yl]-[1,2,4]oxadiazol-3-yl}-6-methyl-phenoxy)-2-hydroxy-propyl]-2-hydroxy-acetamide] the figure was 20 nM.
Still for that read-out and setting: with `CCN(CC)c1ncc(-c2nc(-c3cc(C)c(OC[C@@H](O)CNC(=O)CO)c(C)c3)no2)cc1C` [Example 55, N-((S)-3-{4-[5-(6-Diethylamino-5-methyl-pyridin-3-yl)-[1,2,4]oxadiazol-3-yl]-2,6-dimethyl-phenoxy}-2-hydroxy-propyl)-2-hydroxy-acetamide] the figure was 0.9 nM; with `CCN(CC)c1ncc(-c2nc(-c3ccc(OC[C@@H](O)CNC(=O)CO)cc3C)no2)cc1C` [Example 58, N-((S)-3-{4-[5-(6-Diethylamino-5-methyl-pyridin-3-yl)-[1,2,4]oxadiazol-3-yl]-3-methyl-phenoxy}-2-hydroxy-propyl)-2-hydroxy-acetamide], 14 nM.
Still for that read-out and setting: then `CCc1cc(-c2nnc(-c3cnc(N(CC)CC)c(C)c3)o2)cc(C)c1OC[C@@H](O)CNC(=O)CO` [Example 68, N-((2S)-3-{4-[5-(6-Diethylamino-5-methyl-pyridin-3-yl)-[1,3,4]oxadiazol-2-yl]-2-ethyl-6-methyl-phenoxy}-2-hydroxy-propyl)-2-hydroxy-acetamide], with 21.2 nM; and `CCN(CC)c1ncc(-c2nc(-c3cc(C)c(OC[C@@H](O)CNC(=O)CO)c(Cl)c3)no2)cc1C` [Example 56, N-((S)-3-{2-Chloro-4-[5-(6-diethylamino-5-methyl-pyridin-3-yl)-[1,2,4]oxadiazol-3-yl]-6-methyl-phenoxy}-2-hydroxy-propyl)-2-hydroxy-acetamide], with 1.3 nM.
Regarding `CCN(CC)c1ncc(-c2nc(-c3cc(Cl)c(OC[C@@H](O)CO)c(OC)c3)no2)cc1C` [Example 64, (S)-3-{2-Chloro-4-[5-(6-diethylamino-5-methyl-pyridin-3-yl)-[1,2,4]oxadiazol-3-yl]-6-methoxy-phenoxy}-propane-1,2-diol], the EC50 was found to be 8.9 nM.
Still for that read-out and setting: with `CCc1cc(-c2nc(-c3cc(C)c(OC[C@@H](O)CO)c(CC)c3)no2)cnc1N(CC)CC` [Example 24, (S)-3-{4-[5-(6-Diethylamino-5-ethyl-pyridin-3-yl)-[1,2,4]oxadiazol-3-yl]-2-ethyl-6-methyl-phenoxy}-propane-1,2-diol] the figure was 12 nM; with `CCc1cc(-c2nc(-c3cc(C)c(OC[C@H](O)CNC(=O)CO)c(CC)c3)no2)cnc1N(C)C(C)C` [Example 34, N-[(R)-3-(2-Ethyl-4-{5-[5-ethyl-6-(isopropyl-methyl-amino)-pyridin-3-yl]-[1,2,4]oxadiazol-3-yl}-6-methyl-phenoxy)-2-hydroxy-propyl]-2-hydroxy-acetamide], 3 nM.

The assay is the same for the next values; noted with them: 35S-GTPγS binding, membranes of CHO cells expressing human S1P1; read-out: EC50.
As for `CCc1cc(-c2noc(-c3cnc(N4CCCC4)c(C)c3)n2)cc(C)c1OC[C@@H](O)CN` [Example 19], the concentration for a half-maximal effect (EC50) is more than 10000 nM.
Consider `CCc1cc(-c2noc(-c3cnc(N4CCCC4)c(C)c3)n2)cc(C)c1OC[C@H](O)CN` [Example 18], for which the concentration for a half-maximal effect (EC50) was more than 10000 nM.

A further assay deals with circulating lymphocytes. Nature of the assay: Assessment of in vivo efficacy: circulating lymphocytes after oral administration. Also noted: species or system rat. The conditions noted are these: 6 h after oral administration of 10 mg/kg, normotensive male Wistar rats, compared to vehicle-treated group. Here is the method: Assessment of In Vivo Efficacy
The efficacy of the compounds of Formula (I) is assessed by measuring the circulating lymphocytes after oral administration of 3 to 30 mg/kg of a compound of Formula (I) to normotensive male Wistar rats. The animals are housed in climate-controlled conditions with a 12 h-light/dark cycle, and have free access to normal rat chow and drinking water. Blood is collected before and 3, 6 and 24 h after drug administration. Full blood is subjected to hematology using Advia Hematology system (Bayer Diagnostics, Zürich, Switzerland).
All data are presented as mean±SEM. Statistical analyses are performed by analysis of variance (ANOVA) using Statistica (StatSoft) and the Student-Newman-Keuls procedure for multiple comparisons. The null hypothesis is rejected when p<0.05.
In the case of `CCc1cc(-c2noc(-c3cnc(N(CC)CC)c(C)c3)n2)cc(C)c1OC[C@@H](O)CNC(=O)CO` [Example 8, N-((S)-3-{-4-[5-(6-Diethylamino-5-methyl-pyridin-3-yl)-[1,2,4]oxadiazol-3-yl]-2-ethyl-6-methyl-phenoxy}-2-hydroxy-propyl)-2-hydroxy-acetamide], the Lymphocyte counts is −66%.
Same read-out and setting: then `CCc1cc(-c2nc(-c3cc(C)c(OC[C@@H](O)CNC(=O)CO)c(CC)c3)no2)cnc1N(CC)CC` [Example 28, N-((S)-3-{4-[5-(6-Diethylamino-5-ethyl-pyridin-3-yl)-[1,2,4]oxadiazol-3-yl]-2-ethyl-6-methyl-phenoxy}-2-hydroxy-propyl)-2-hydroxy-acetamide], with −56%; and `CCc1cc(-c2nc(-c3cc(C)c(OC[C@H](O)CNC(=O)CO)c(CC)c3)no2)cnc1N(CC)CC` [Example 27, N-((R)-3-{4-[5-(6-Diethylamino-5-ethyl-pyridin-3-yl)-[1,2,4]oxadiazol-3-yl]-2-ethyl-6-methyl-phenoxy}-2-hydroxy-propyl)-2-hydroxy-acetamide], with −55%.
The same measure, in the same setting: with `CCc1cc(-c2nc(-c3cc(C)c(OC[C@@H](O)CNC(=O)CO)c(CC)c3)no2)cnc1N1CCCC1` [Example 54, N-((S)-3-{2-Ethyl-4-[5-(5-ethyl-6-pyrrolidin-1-yl-pyridin-3-yl)-[1,2,4]oxadiazol-3-yl]-6-methyl-phenoxy}-2-hydroxy-propyl)-2-hydroxy-acetamide] the figure was −57%.

The values are drawn from patent US20110028448A1, “PYRIDINE COMPOUNDS” (priority 2008, published 2011).
